Measurements reported in ChEMBL document CHEMBL5532655, “Discovery of (R)-4-(8-methoxy-2-methyl-1-(1-phenylethy)-1H-imidazo[4,5-c]quinnolin-7-yl)-3,5-dimethylisoxazole as a potent and selective BET inhibitor for treatment of acute myeloid leukemia (AML) guided by FEP calculation” (Eur J Med Chem, 2024).

How the values were obtained:
Assay in all cases: cells
[1] = test system: MOLM-13; conditions: Homo sapiens, MOLM-13, 48 h
Description: Antiproliferative activity against human MOLM-13 cells assessed as inhibition of cell growth incubated for 48 hrs by MTT assay

[2] = test system: Jurkat; conditions: Homo sapiens, 48 h
Description: Antiproliferative activity against human Jurkat cells assessed as inhibition of cell growth incubated for 48 hrs by MTT assay

[3] = test system: MM1.S; conditions: Homo sapiens, 48 h
Description: Antiproliferative activity against human MM1.S cells assessed as inhibition of cell growth incubated for 48 hrs by MTT assay

[4] = test system: MV4-11; conditions: Homo sapiens, MV4-11, 48 h
Description: Antiproliferative activity against human MV4-11 cells assessed as inhibition of cell growth incubated for 48 hrs by MTT assay

IC50 [1] [µM]	IC50 [2] [µM]	IC50 [3] [µM]	IC50 [4] [µM]	Compound
> 20	> 20	13.5	18	COc1ccc(-c2cc3ncc4nc(C)n([C@@H](C)c5ccccc5)c4c3cc2OC)cc1CO
4.74	15.2	5.69	1.4	COc1cc2c(cc1-c1ccc(N)nc1)ncc1nc(C)n([C@@H](C)c3ccccc3)c12
> 20	> 20	9.23	> 20	COc1cc2c(cc1-c1cnc(N)nc1)ncc1nc(C)n([C@@H](C)c3ccccc3)c12
6.4	16.1	3.55	1.29	COc1cc2c(cc1-c1c(C)noc1C)ncc1nc(C)n([C@H](C)c3ccccn3)c12
10.1	4.53	9.09	5	COc1cc2c(cc1-c1ccc(C#N)cc1)ncc1nc(C)n([C@@H](C)c3ccccc3)c12
12.8	> 20	2.34	4.63	COc1cc2c(cc1-c1c(C)noc1C)ncc1nc(C)n(-c3ccc(C#N)cc3)c12
4.73	12.9	11.6	12.5	COc1cc2c(cc1-c1ccc(C(C)=O)cc1)ncc1nc(C)n([C@@H](C)c3ccccc3)c12
> 20	> 20	6.34	> 20	COc1ccc(-n2c(C)nc3cnc4cc(-c5ccc(C)cc5)c(OC)cc4c32)cc1
8.42	> 20	5.79	2.25	COc1cc2c(cc1-c1ccc(O)cc1)ncc1nc(C)n([C@@H](C)c3ccccc3)c12
0.44	> 20	> 20	10.9	COc1cc2c(cc1-c1c(C)n[nH]c1C)ncc1nc(C)n([C@H](C)c3ccccn3)c12
10.9	> 20	7.4	> 20	COc1ccncc1-c1cc2ncc3nc(C)n([C@@H](C)c4ccccc4)c3c2cc1OC
9.7	> 20	13.7	2.21	COc1cc2c(cc1-c1ccc3[nH]ccc3c1)ncc1nc(C)n([C@@H](C)c3ccccc3)c12
> 20	> 20	5.92	6.24	COc1cc2c(cc1-c1cc(C)cc(C)c1)ncc1nc(C)n([C@@H](C)c3ccccc3)c12
> 20	> 20	5.67	> 20	COc1ccc(-n2c(C)nc3cnc4cc(-c5cnccc5OC)c(OC)cc4c32)cc1
19.1	> 20	8.69	10.4	COc1cc2c(cc1-c1ccc3nc[nH]c3c1)ncc1nc(C)n([C@@H](C)c3ccccc3)c12
> 20	4.71	13	18.6	COc1ccc(-n2c(C)nc3cnc4cc(-c5cnc6[nH]ccc6c5)c(OC)cc4c32)cc1
7.16	11.1	4.04	3.25	COc1cc2c(cc1-c1ccc(N)cc1)ncc1nc(C)n([C@@H](C)c3ccccc3)c12
4.99	> 20	6.02	8.3	COc1cc2c(cc1-c1ccc(C)cc1)ncc1nc(C)n([C@@H](C)c3ccccc3)c12
> 20	> 20	> 20	> 20	COc1ccc(-n2c(C)nc3cnc4cc(-c5cnc(N)nc5)c(OC)cc4c32)cc1
18.3	15	2.44	4.96	COc1ccc(-n2c(C)nc3cnc4cc(-c5ccc(O)cc5)c(OC)cc4c32)cc1
> 20	2.14	11.5	0.62	COc1cc2c(cc1-c1cnn(C)c1)ncc1nc(C)n([C@@H](C)c3ccccc3)c12
> 20	> 20	> 20	11	COc1ccc(-n2c(C)nc3cnc4cc(-c5ccc(F)cc5)c(OC)cc4c32)cc1
6.85	15.6	10.1	6.13	COc1cc2c(cc1-c1cnc3[nH]ccc3c1)ncc1nc(C)n(C(C)c3ccccc3)c12 (stereo not given)

IC50 [1] [µM]	IC50 [2] [µM]	IC50 [3] [µM]	IC50 [4] [µM]	Compound
3.55	9.87	5.84	2.6	COc1cc2c(cc1-c1cnn(C)c1)ncc1nc(C)n([C@H](C)c3ccccn3)c12
4.12	5.46	4.84	13.1	COc1ccc(-c2cc3ncc4nc(C)n([C@@H](C)c5ccccc5)c4c3cc2OC)cc1
> 20	> 20	12.4	11.1	COc1ccc(-n2c(C)nc3cnc4cc(-c5ccc(C(C)=O)cc5)c(OC)cc4c32)cc1
> 20	> 20	6.9	6.83	COc1cc2c(cc1-c1cnn(C)c1)ncc1nc(C)n([C@H](C)c3ccccc3)c12
> 20	15.1	9.8	9.93	COc1ccc(-n2c(C)nc3cnc4cc(-c5ccc6[nH]ccc6c5)c(OC)cc4c32)cc1
> 20	> 20	> 20	5.64	COc1ccc(-n2c(C)nc3cnc4cc(-c5ccc(C(F)(F)F)cc5)c(OC)cc4c32)cc1
> 20	> 20	7.9	5.39	COc1ccc(-n2c(C)nc3cnc4cc(-c5ccc(C#N)cc5)c(OC)cc4c32)cc1
0.91	16.4	11.9	5	COc1cc2c(cc1-c1ccc(C(F)(F)F)cc1)ncc1nc(C)n([C@@H](C)c3ccccc3)c12
13.1	16.5	8.92	0.53	COc1cc2c(cc1-c1c(C)n[nH]c1C)ncc1nc(C)n([C@@H](C)c3ccccc3)c12
15.6	> 20	12.5	4.41	COc1ccc(-c2cc3ncc4nc(C)n(-c5ccc(OC)cc5)c4c3cc2OC)cc1
11.3	11.2	5.78	9.21	COc1ccc(-n2c(C)nc3cnc4cc(-c5ccc(N)nc5)c(OC)cc4c32)cc1
> 20	17.2	5.8	5.33	COc1ccc(-n2c(C)nc3cnc4cc(-c5ccc6nc[nH]c6c5)c(OC)cc4c32)cc1
2.49	> 20	9.48	2.85	COc1cc2c(cc1-c1ccc(F)cc1)ncc1nc(C)n([C@@H](C)c3ccccc3)c12
> 20	> 20	12	> 20	COc1ccc(-n2c(C)nc3cnc4cc(-c5cc(C)cc(C)c5)c(OC)cc4c32)cc1
11.6	> 20	9.3	1.22	COc1ccc(-n2c(C)nc3cnc4cc(-c5c(C)noc5C)c(OC)cc4c32)cc1
> 20	> 20	11	17.9	COc1ccc(-n2c(C)nc3cnc4cc(-c5ccc(OC)c(CO)c5)c(OC)cc4c32)cc1
> 20	> 20	3.12	10.6	COc1ccc(-n2c(C)nc3cnc4cc(-c5c(C)n[nH]c5C)c(OC)cc4c32)cc1
> 20	> 20	9.8	> 20	COc1ccc(-n2c(C)nc3cnc4cc(-c5ccc(N)cc5)c(OC)cc4c32)cc1
12.5	16.6	11.2	2.02	COc1cc2c(cc1-c1c(C)noc1C)ncc1nc(C)n([C@@H](C)c3ccccc3)c12
10.1	> 20	7.06	1.05	COc1cc2c(cc1-c1c(C)noc1C)ncc1nc(C)n(-c3ccc(CC#N)cc3)c12
5.15	> 20	1.85	1.02	COc1cc2c(cc1-c1c(C)noc1C)ncc1nc(C)n(C3CCOCC3)c12
> 20	> 20	3.23	9.71	COc1ccc(-n2c(C)nc3cnc4cc(-c5cnn(C)c5)c(OC)cc4c32)cc1
